Converted amounts (≈) assume the structure as drawn.
Experiments:
[1] = system: E. faecalis VSE 1; assay: MIC, broth microdilution, vancomycin-sensitive E. faecalis (VSE 1); assay type: cell-based, Enterococcus faecalis; settings: for MIC: Enterococcus faecalis VSE 1 (vancomycin-sensitive), read-out: MIC; for MIC-fold improvement vs. vancomycin: VSE 1, ratio of MIC of vancomycin and MIC of analogue
Procedure, shortened: (§1)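 Susceptibility was scored by broth microdilution (CLSI). In one instance each vancomycin analog or control antibiotic was tested in the presence of vancomycin, 10 μM final, and ultrapure water plus non-inoculated broth were included as controls.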

[2] = system: E. faecalis VRE 6; assay: MIC, broth microdilution, vancomycin-resistant E. faecalis VRE 6 (VanA); assay type: cell-based, Enterococcus faecalis; settings: for MIC: Enterococcus faecalis VRE 6 (vancomycin-resistant), read-out: MIC; for MIC-fold improvement vs. vancomycin: VRE 6, ratio of MIC of vancomycin and MIC of analogue
Procedure, shortened: as §1

[3] = system: E. faecalis VRE 53; assay: MIC, broth microdilution, vancomycin-resistant E. faecalis VRE 53 (VanA); assay type: cell-based, Enterococcus faecalis; settings: for MIC: Enterococcus faecalis VRE 53 (vancomycin-resistant), read-out: MIC; for MIC-fold improvement vs. vancomycin: VRE 53, ratio of MIC of vancomycin and MIC of analogue
Procedure, shortened: as §1

[4] = system: E. faecalis VRE 29; assay: MIC, broth microdilution, vancomycin-resistant E. faecalis VRE 29 (VanA); assay type: cell-based, Enterococcus faecalis; settings: for MIC: Enterococcus faecalis VRE 29 (vancomycin-resistant), read-out: MIC; for MIC-fold improvement vs. vancomycin: VRE 29, ratio of MIC of vancomycin and MIC of analogue
Procedure, shortened: as §1

[5] = system: E. faecalis VRE 37; assay: MIC, broth microdilution, vancomycin-resistant E. faecalis VRE 37 (VanA); assay type: cell-based, Enterococcus faecalis; settings: for MIC: Enterococcus faecalis VRE 37 (vancomycin-resistant), read-out: MIC; for MIC-fold improvement vs. vancomycin: VRE 37, ratio of MIC of vancomycin and MIC of analogue
Procedure, shortened: as §1

[6] = system: Murine leukemia (L1210) cells; assay: Cytostatic activity, L1210 cell proliferation; assay type: cell-based; settings: mean ± SD of three experiments; highest concentration tested 250 µM; 2 days; read-out: Toxicity (IC50) L1210
Procedure, shortened: (§2)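 Readout: Coulter cell number after drug exposure at 37°C. Durations differ by line (L1210 2 days; CEM 3 days; HeLa 4 days). Stock suspension 300,000–500,000 cells/mL, diluted by mixing with compound. Endpoint: IC50 vs negative control.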

[7] = system: human T-lymphocyte (CEM) cells; assay: Cytostatic activity, CEM cell proliferation; assay type: cell-based; settings: mean ± SD of three experiments; highest concentration tested 250 µM; 3 days; read-out: Toxicity (IC50) CEM
Procedure, shortened: as §2

[8] = system: human cervix carcinoma (HeLa) cells; assay: Cytostatic activity, HeLa cell proliferation; assay type: cell-based; settings: mean ± SD of three experiments; highest concentration tested 250 µM; 4 days; read-out: Toxicity (IC50) HeLa
Procedure, shortened: as §2

[9] = system: L1210, CEM and HeLa cell lines; assay: Cytostatic activity, average or summary over L1210, CEM and HeLa; assay type: cell-based; settings: average of L1210, CEM and HeLa; read-out: Toxicity (IC50) Average
Procedure, shortened: as §2

[10] = system: S. aureus VSSA (ATCC 6538); assay: MIC, broth microdilution, vancomycin-sensitive S. aureus (VSSA/MSSA, ATCC 6538); assay type: cell-based, Staphylococcus aureus; settings: for MIC: Staphylococcus aureus VSSA, read-out: MIC; for MIC-fold improvement vs. vancomycin: VSSA, ratio of MIC of vancomycin and MIC of analogue
Procedure, shortened: as §1

[11] = system: S. aureus VISA/HIP5827; assay: MIC, broth microdilution, vancomycin-intermediate S. aureus VISA HIP5827; assay type: cell-based, Staphylococcus aureus; settings: for MIC: Staphylococcus aureus VISA/HIP5827, read-out: MIC; for MIC-fold improvement vs. vancomycin: VISA/HIP5827, ratio of MIC of vancomycin and MIC of analogue
Procedure, shortened: as §1

[12] = system: S. aureus VRSA; assay: MIC, broth microdilution, vancomycin-resistant S. aureus (VRSA); assay type: cell-based, Staphylococcus aureus; settings: for MIC: Staphylococcus aureus VRSA, read-out: MIC; for MIC-fold improvement vs. vancomycin: VRSA, ratio of MIC of vancomycin and MIC of analogue
Procedure, shortened: as §1

[13] = system: MRSA KS2; assay: MIC, broth microdilution, MRSA KS2; assay type: cell-based, Staphylococcus aureus; settings: for MIC-fold improvement vs. vancomycin: MRSA KS2, ratio of MIC of vancomycin and MIC of analogue; for MIC: Staphylococcus aureus MRSA KS2, read-out: MIC
Procedure, shortened: as §1

[14] = system: MRSA KS6; assay: MIC, broth microdilution, MRSA KS6; assay type: cell-based, Staphylococcus aureus; settings: for MIC-fold improvement vs. vancomycin: MRSA KS6, ratio of MIC of vancomycin and MIC of analogue; for MIC: Staphylococcus aureus MRSA KS6, read-out: MIC
Procedure, shortened: as §1

[15] = system: MRSA KS89; assay: MIC, broth microdilution, MRSA KS89; assay type: cell-based, Staphylococcus aureus; settings: for MIC-fold improvement vs. vancomycin: MRSA KS8, ratio of MIC of vancomycin and MIC of analogue; for MIC: Staphylococcus aureus MRSA KS8, read-out: MIC
Procedure, shortened: as §1

[16] = system: MRSA KS1; assay: MIC, broth microdilution, MRSA KS1; assay type: cell-based, Staphylococcus aureus; settings: for MIC-fold improvement vs. vancomycin: MRSA KS1, ratio of MIC of vancomycin and MIC of analogue; for MIC: Staphylococcus aureus MRSA KS1, read-out: MIC
Procedure, shortened: as §1

SMILES | MIC [1] [µM] | MIC-fold improvement vs. vancomycin [1] | MIC [2] [µM] | MIC-fold improvement vs. vancomycin [2] | MIC [3] [µM] | MIC-fold improvement vs. vancomycin [3] | MIC [4] [µM] | MIC-fold improvement vs. vancomycin [4] | MIC [5] [µM] | MIC [10] [µM] | MIC-fold improvement vs. vancomycin [10] | MIC [11] [µM] | MIC-fold improvement vs. vancomycin [11] | MIC [12] [µM] | MIC-fold improvement vs. vancomycin [12] | MIC-fold improvement vs. vancomycin [13] | IC50 [6] [µM] | IC50 [7] [µM] | IC50 [8] [µM] | IC50 [9] [µM] | other results
CCc1cccc(C)c1NC(=O)CNC(=O)C1NC(=O)C2NC(=O)C(NC(=O)C3NC(=O)C(CC(N)=O)NC(=O)C(NC(=O)C(CC(C)C)NC)C(O)c4ccc(c(Cl)c4)Oc4cc3cc(c4OC3OC(CO)C(O)C(O)C3OC3CC(C)(N)C(O)C(C)O3)Oc3ccc(cc3Cl)C2O)c2ccc(O)c(c2)-c2c(O)cc(O)cc21 (stereo not shown) [Vanc-19] | 1.56 (≈ 2.53 µg/mL) | 1 | 3.13 (≈ 5.08 µg/mL) | 64 | 25 (≈ 40.6 µg/mL) | 16 | 12.5 (≈ 20.3 µg/mL) | 32 | 25 (≈ 40.6 µg/mL) | 0.78 (≈ 1.27 µg/mL) | 1 | 3.13 (≈ 5.08 µg/mL) | 2 | 12.5 (≈ 20.3 µg/mL) | 8 | 1 | > 250 | > 250 | 63 ± 5 | 188 | MIC-fold improvement vs. vancomycin [5]: 16; MIC [13]: 0.78 µM (≈ 1.27 µg/mL); MIC-fold improvement vs. vancomycin [14]: 0.5; MIC [14]: 1.56 µM (≈ 2.53 µg/mL); MIC-fold improvement vs. vancomycin [15]: 1; MIC [15]: 0.78 µM (≈ 1.27 µg/mL); MIC-fold improvement vs. vancomycin [16]: 1; MIC [16]: 0.78 µM (≈ 1.27 µg/mL)
CN[C@H](CC(C)C)C(=O)N[C@H]1C(=O)N[C@@H](CC(N)=O)C(=O)N[C@H]2C(=O)N[C@H]3C(=O)N[C@H](C(=O)N[C@H](C(=O)NCC(=O)Nc4ccc(Oc5ccccc5)cc4)c4cc(O)cc(O)c4-c4cc3ccc4O)[C@H](O)c3ccc(c(Cl)c3)Oc3cc2cc(c3O[C@@H]2O[C@H](CO)[C@@H](O)[C@H](O)[C@H]2O[C@H]2C[C@](C)(N)[C@H](O)[C@H](C)O2)Oc2ccc(cc2Cl)[C@H]1O [Vanc-71] | 0.78 (≈ 1.31 µg/mL) | 2 | 3.13 (≈ 5.24 µg/mL) | 64 | 6.25 (≈ 10.5 µg/mL) | 64 | 6.25 (≈ 10.5 µg/mL) | 64 | 6.25 (≈ 10.5 µg/mL) | 0.39 (≈ 0.653 µg/mL) | 2 | 0.78 (≈ 1.31 µg/mL) | 8 | 1.56 (≈ 2.61 µg/mL) | 64 | 4 | > 250 | 137 ± 41 | 91 ± 36 | 159 | MIC-fold improvement vs. vancomycin [5]: 64; MIC [13]: 0.20 µM (≈ 0.335 µg/mL); MIC-fold improvement vs. vancomycin [14]: 4; MIC [14]: 0.20 µM (≈ 0.335 µg/mL); MIC-fold improvement vs. vancomycin [15]: 4; MIC [15]: 0.20 µM (≈ 0.335 µg/mL); MIC-fold improvement vs. vancomycin [16]: 4; MIC [16]: 0.20 µM (≈ 0.335 µg/mL)
CN[C@H](CC(C)C)C(=O)N[C@H]1C(=O)N[C@@H](CC(N)=O)C(=O)N[C@H]2C(=O)N[C@H]3C(=O)N[C@H](C(=O)N[C@H](C(=O)NCC(=O)Nc4ccc(OC)cc4)c4cc(O)cc(O)c4-c4cc3ccc4O)[C@H](O)c3ccc(c(Cl)c3)Oc3cc2cc(c3O[C@@H]2O[C@H](CO)[C@@H](O)[C@H](O)[C@H]2O[C@H]2C[C@](C)(N)[C@H](O)[C@H](C)O2)Oc2ccc(cc2Cl)[C@H]1O [Vanc-5] | 0.78 (≈ 1.26 µg/mL) | 2 | 6.25 (≈ 10.1 µg/mL) | 32 | 12.5 (≈ 20.1 µg/mL) | 32 | 12.5 (≈ 20.1 µg/mL) | 32 | 12.5 (≈ 20.1 µg/mL) | 0.39 (≈ 0.628 µg/mL) | 2 | 0.39 (≈ 0.628 µg/mL) | 16 | 12.5 (≈ 20.1 µg/mL) | 8 | 2 | > 250 | > 250 | > 250 | > 250 | MIC-fold improvement vs. vancomycin [5]: 64; MIC [13]: 0.39 µM (≈ 0.628 µg/mL); MIC-fold improvement vs. vancomycin [14]: 1; MIC [14]: 0.78 µM (≈ 1.26 µg/mL); MIC-fold improvement vs. vancomycin [15]: 1; MIC [15]: 0.78 µM (≈ 1.26 µg/mL); MIC-fold improvement vs. vancomycin [16]: 1; MIC [16]: 0.78 µM (≈ 1.26 µg/mL)

Now from value to compound, other results behind:

MIC [1] [µM] | MIC-fold improvement vs. vancomycin [1] | MIC [2] [µM] | MIC-fold improvement vs. vancomycin [2] | MIC [3] [µM] | MIC-fold improvement vs. vancomycin [3] | MIC [4] [µM] | MIC-fold improvement vs. vancomycin [4] | MIC [5] [µM] | MIC [10] [µM] | MIC-fold improvement vs. vancomycin [10] | MIC [11] [µM] | MIC-fold improvement vs. vancomycin [11] | MIC [12] [µM] | MIC-fold improvement vs. vancomycin [12] | MIC-fold improvement vs. vancomycin [13] | SMILES | IC50 [6] [µM] | IC50 [7] [µM] | IC50 [8] [µM] | IC50 [9] [µM] | other results
0.78 (≈ 1.3 µg/mL) | 2 | 6.25 (≈ 10.4 µg/mL) | 32 | 25 (≈ 41.6 µg/mL) | 16 | 12.5 (≈ 20.8 µg/mL) | 32 | 25 (≈ 41.6 µg/mL) | 0.78 (≈ 1.3 µg/mL) | 1 | 1.56 (≈ 2.6 µg/mL) | 4 | 6.25 (≈ 10.4 µg/mL) | 16 | 2 | CNC(CC(C)C)C(=O)NC1C(=O)NC(CC(N)=O)C(=O)NC2C(=O)NC3C(=O)NC(C(=O)NC(C(=O)NCCCNC(=O)c4ccc(C(C)(C)C)cc4)c4cc(O)cc(O)c4-c4cc3ccc4O)C(O)c3ccc(c(Cl)c3)Oc3cc2cc(c3OC2OC(CO)C(O)C(O)C2OC2CC(C)(N)C(O)C(C)O2)Oc2ccc(cc2Cl)C1O (stereo not shown) [Vanc-73] | 108 ± 42 | 130 ± 6 | 81 ± 6 | 106 | MIC-fold improvement vs. vancomycin [5]: 16; MIC [13]: 0.39 µM (≈ 0.65 µg/mL); MIC-fold improvement vs. vancomycin [14]: 2; MIC [14]: 0.39 µM (≈ 0.65 µg/mL); MIC-fold improvement vs. vancomycin [15]: 2; MIC [15]: 0.39 µM (≈ 0.65 µg/mL); MIC-fold improvement vs. vancomycin [16]: 1; MIC [16]: 0.78 µM (≈ 1.3 µg/mL)
0.39 (≈ 0.656 µg/mL) | 4 | 6.25 (≈ 10.5 µg/mL) | 32 | 12.5 (≈ 21 µg/mL) | 32 | 12.5 (≈ 21 µg/mL) | 32 | 12.5 (≈ 21 µg/mL) | 0.39 (≈ 0.656 µg/mL) | 2 | 0.78 (≈ 1.31 µg/mL) | 8 | 0.78 (≈ 1.31 µg/mL) | 128 | 4 | CCCCOc1ccc(C(=O)NCCCNC(=O)C2NC(=O)C3NC(=O)C(NC(=O)C4NC(=O)C(CC(N)=O)NC(=O)C(NC(=O)C(CC(C)C)NC)C(O)c5ccc(c(Cl)c5)Oc5cc4cc(c5OC4OC(CO)C(O)C(O)C4OC4CC(C)(N)C(O)C(C)O4)Oc4ccc(cc4Cl)C3O)c3ccc(O)c(c3)-c3c(O)cc(O)cc32)cc1 (stereo not shown) [Vanc-50] | > 250 | 86 ± 2 | 96 ± 4 | 144 | MIC [13]: 0.20 µM (≈ 0.336 µg/mL); MIC-fold improvement vs. vancomycin [14]: 2; MIC [14]: 0.39 µM (≈ 0.656 µg/mL); MIC-fold improvement vs. vancomycin [15]: 2; MIC [15]: 0.39 µM (≈ 0.656 µg/mL); MIC-fold improvement vs. vancomycin [16]: 4; MIC [16]: 0.20 µM (≈ 0.336 µg/mL)

— PMC6001238, “Iterative Chemical Engineering of Vancomycin Leads to Novel Vancomycin Analogs With a High in Vitro Therapeutic Index” (Frontiers in Microbiology, 2018)
